Test results as given in patent publication US6620831B2, “Indazoles substituted with 1,1-dioxoisothiazolidine useful as inhibitors of cell proliferation” (LG Life Sciences Ltd., priority 2000, dated 2003).

molecular target: T1, CDK2/cyclin A (Homo sapiens, UniProt P24941); assay: CDK2 inhibitory activity (CDK2/cyclin A, [gamma-32P] ATP, histon H1 or Rb protein substrate); assay type: biochemical; conditions: first IC50 column (c1) of Table 1
T1 construct: made in house; host or cells: insect ('worm') cells co-infected with baculoviruses
Text: CDK2 enzyme was obtained from either extract from the worm cell co-infected with baculovirus which expresses a CDK2 gene and baculovirus which expresses a cyclin A gene, or active enzyme purified therefrom. CDK4 was also obtained from either extract from the worm cell co-infected with baculovirus which expresses a CDK4 gene and baculovirus which expresses a cyclin D1 gene. As substrates, histon H1 or Rb protein was used for CDK2, and Rb protein for CDK4. The radioactive activities in substrates were determined by reacting compounds diluted with each concentration with a proper quantity of CDK2/cyclin A or CDK4/cyclin D1 and substrate protein, and [gamma-32P labeled] ATP, and then separating the substrates.
Inhibitory abilities of inhibitors according to the present invention for each enzyme activity were expressed as IC50 values, which were determined in accordance with the method as described above.

`Cc1ccccc1CC(=O)Nc1n[nH]c2ccc(N3CCCS3(=O)=O)cc12` [Compound 68, N-[5-(1,1-dioxo-1λ^6-isothiazolidin-2-yl)-1H-indazol-3-yl]-2-(2-methylphenyl)acetamide] and `O=C(Cc1ccccc1)Nc1n[nH]c2ccc(N3CCCS3(=O)=O)cc12` [Compound 1, N-[5-(1,1-dioxo-1λ^6-isothiazolidin-2-yl)-1H-indazol-3-yl]-2-phenylacetamide] cannot be ordered by IC50: under 100 nM for the first, under 50 nM for the second.

`CCNc1ccc(CC(=O)Nc2n[nH]c3ccc(N4CCCS4(=O)=O)cc23)cc1` [Compound 72, N-[5-(1,1-dioxo-1λ^6-isothiazolidin-2-yl)-1H-indazol-3-yl]-2-[4-(ethylamino)phenyl]acetamide] and `CNc1ccc(CC(=O)Nc2n[nH]c3ccc(N4CCCS4(=O)=O)cc23)cc1` [Compound 6, N-[5-(1,1-dioxo-1λ^6-isothiazolidin-2-yl)-1H-indazol-3-yl]-2-[4-(methylamino)phenyl]acetamide] cannot be ordered by IC50: under 50 nM for the first, under 50 nM for the second.

`CCN(CC)c1nc(CC(=O)Nc2n[nH]c3ccc(N4CCCS4(=O)=O)cc23)cs1` [Compound 65, 2-[2-(diethylamino)-1,3-thiazol-4-yl]-N-[5-(1,1-dioxo-1λ^6-isothiazolidin-2-yl)-1H-indazol-3-yl]acetamide] and `CCNc1nc(CC(=O)Nc2n[nH]c3ccc(N4CCCS4(=O)=O)cc23)cs1` [Compound 64, N-[5-(1,1-dioxo-1λ^6-isothiazolidin-2-yl)-1H-indazol-3-yl]-2-[2-(ethylamino)-1,3-thiazol-4-yl]acetamide] cannot be ordered by IC50: under 500 nM for the first, under 500 nM for the second.

`O=S1(=O)CCCN1c1ccc2[nH]nc(NC(=S)Cc3ccccc3)c2c1` [Compound 13, N-[5-(1,1-dioxo-1λ^6-isothiazolidin-2-yl)-1H-indazol-3-yl]-2-phenylethanethioamide] and `O=S1(=O)CCCN1c1ccc2[nH]nc(NC(Cc3ccccc3)=NO)c2c1` [Compound 14, N-[5-(1,1-dioxo-1λ^6-isothiazolidin-2-yl)-1H-indazol-3-yl]-N′-hydroxy-2-phenylethaneimidoamide] cannot be ordered by IC50: under 10000 nM for the first, under 10000 nM for the second.

`O=C(Cc1ccc(-c2ccsc2)cc1)Nc1n[nH]c2ccc(N3CCCS3(=O)=O)cc12` [Compound 36, N-[5-(1,1-dioxo-1λ^6-isothiazolidin-2-yl)-1H-indazol-3-yl]-2-[4-(3-thienyl)phenyl]acetamide] and `O=C(Cc1ccc(-c2ccncc2)cc1)Nc1n[nH]c2ccc(N3CCCS3(=O)=O)cc12` [Compound 33, N-[5-(1,1-dioxo-1λ^6-isothiazolidin-2-yl)-1H-indazol-3-yl]-2-[4-(4-pyridinyl)phenyl]acetamide] cannot be ordered by IC50: under 50 nM for the first, under 50 nM for the second.

`O=C(Cc1ccc(Br)cc1)Nc1n[nH]c2ccc(N3CCCS3(=O)=O)cc12` [Compound 12, 2-(4-bromophenyl)-N-[5-(1,1-dioxo-1λ^6-isothiazolidin-2-yl)-1H-indazol-3-yl]acetamide] and `O=C(Cc1ccc(Cl)cc1)Nc1n[nH]c2ccc(N3CCCS3(=O)=O)cc12` [Compound 8, 2-(4-chlorophenyl)-N-[5-(1,1-dioxo-1λ^6-isothiazolidin-2-yl)-1H-indazol-3-yl]acetamide] cannot be ordered by IC50: under 50 nM for the first, under 50 nM for the second.

`CC(=NO)Nc1n[nH]c2ccc(N3CCCS3(=O)=O)cc12` [Compound 23, N-[5-(1,1-dioxo-1λ^6-isothiazolidin-2-yl)-1H-indazol-3-yl]-N′-hydroxyethaneimidoamide] and `CC(=S)Nc1n[nH]c2ccc(N3CCCS3(=O)=O)cc12` [Compound 22, N-[5-(1,1-dioxo-1λ^6-isothiazolidin-2-yl)-1H-indazol-3-yl]ethanethioamide] cannot be ordered by IC50: under 100000 nM for the first, under 50000 nM for the second.

`CCOc1ccc(CC(=O)Nc2n[nH]c3ccc(N4CCCS4(=O)=O)cc23)cc1Cl` [Compound 74, 2-(3-chloro-4-ethoxyphenyl)-N-[5-(1,1-dioxo-1λ^6-isothiazolidin-2-yl)-1H-indazol-3-yl]acetamide] and `CCOc1ccc(CC(=O)Nc2n[nH]c3ccc(N4CCCS4(=O)=O)cc23)cc1[N+](=O)[O-]` [Compound 67, N-[5-(1,1-dioxo-1λ^6-isothiazolidin-2-yl)-1H-indazol-3-yl]-2-(4-ethoxy-3-nitrophenyl)acetamide] cannot be ordered by IC50: under 100 nM for the first, under 50 nM for the second.

`O=C(Cc1cccc([N+](=O)[O-])c1)Nc1n[nH]c2ccc(N3CCCS3(=O)=O)cc12` [Compound 18, N-[5-(1,1-dioxo-1λ^6-isothiazolidin-2-yl)-1H-indazol-3-yl]-2-(3-nitrophenyl)acetamide] and `O=C(Cc1ccc([N+](=O)[O-])cc1)Nc1n[nH]c2ccc(N3CCCS3(=O)=O)cc12` [Compound 45, N-[5-(1,1-dioxo-1λ^6-isothiazolidin-2-yl)-1H-indazol-3-yl]-2-(4-nitrophenyl)acetamide] cannot be ordered by IC50: under 50 nM for the first, under 50 nM for the second.

`Cc1cccc(CC(=O)Nc2n[nH]c3ccc(N4CCCS4(=O)=O)cc23)c1` [Compound 27, N-[5-(1,1-dioxo-1λ^6-isothiazolidin-2-yl)-1H-indazol-3-yl]-2-(3-methylphenyl)acetamide] and `CCN(CC)c1cccc(CC(=O)Nc2n[nH]c3ccc(N4CCCS4(=O)=O)cc23)c1` [Compound 70, 2-[3-(diethylamino)phenyl]-N-[5-(1,1-dioxo-1λ^6-isothiazolidin-2-yl)-1H-indazol-3-yl]acetamide] cannot be ordered by IC50: under 50 nM for the first, under 500 nM for the second.

`CC(C)(C)OC(=O)Nc1nc(CC(=O)Nc2n[nH]c3ccc(N4CCCS4(=O)=O)cc23)cs1` [Compound 58, t-butyl 4-(2-[5-(1,1-dioxo-1λ^6-isothiazolidin-2-yl)-1H-indazol-3-yl]amino-2-oxoethyl)-1,3-thiazol-2-ylcarbamate] and `CC(=O)Nc1nc(CC(=O)Nc2n[nH]c3ccc(N4CCCS4(=O)=O)cc23)cs1` [Compound 76] cannot be ordered by IC50: under 100 nM for the first, under 10000 nM for the second.

`O=C(Cn1cnc2ccccc21)Nc1n[nH]c2ccc(N3CCCS3(=O)=O)cc12` [Compound 41, 2-(1H-benzimidazol-1-yl)-N-[5-(1,1-dioxo-1λ^6-isothiazolidin-2-yl)-1H-indazol-3-yl]acetamide] and `O=C(Cn1cnc(-c2ccc(Br)cc2)c1)Nc1n[nH]c2ccc(N3CCCS3(=O)=O)cc12` [Compound 61, 2-[4-(4-bromophenyl)-1H-imidazol-1-yl]-N-[5-(1,1-dioxo-1λ^6-isothiazolidin-2-yl)-1H-indazol-3-yl]acetamide] cannot be ordered by IC50: under 50 nM for the first, under 100 nM for the second.

`O=C(Cc1ccc2c(c1)OCO2)Nc1n[nH]c2ccc(N3CCCS3(=O)=O)cc12` [Compound 15, 2-(1,3-benzodioxol-5-yl)-N-[5-(1,1-dioxo-1λ^6-isothiazolidin-2-yl)-1H-indazole-3-yl]acetamide] and `COc1ccc(CC(=O)Nc2n[nH]c3ccc(N4CCCS4(=O)=O)cc23)cc1` [Compound 38, N-[5-(1,1-dioxo-1λ^6-isothiazolidin-2-yl)-1H-indazol-3-yl]-2-(4-methoxyphenyl)acetamide] cannot be ordered by IC50: under 50 nM for the first, under 100 nM for the second.

`O=C(Cc1ccc(S(=O)(=O)N2CCOCC2)cc1)Nc1n[nH]c2ccc(N3CCCS3(=O)=O)cc12` [Compound 37, N-[5-(1,1-dioxo-1λ^6-isothiazolidin-2-yl)-1H-indazol-3-yl]-2-[4-(4-morpholinylsulfonyl)phenyl]acetamide] and `O=C(Cc1ccc(N2CCOCC2)cc1)Nc1n[nH]c2ccc(N3CCCS3(=O)=O)cc12` [Compound 35, N-[5-(1,1-dioxo-1λ^6-isothiazolidin-2-yl)-1H-indazol-3-yl]-2-[4-(1-morpholinyl)phenyl]acetamide] cannot be ordered by IC50: under 100 nM for the first, under 100 nM for the second.

`O=C(Nc1n[nH]c2ccc(N3CCCS3(=O)=O)cc12)C1(c2ccccc2)CCCC1` [Compound 55, N-[5-(1,1-dioxo-1λ^6-isothiazolidin-2-yl)-1H-indazol-3-yl]-1-phenylcyclopentanecarboxamide] and `CCC(C(=O)Nc1n[nH]c2ccc(N3CCCS3(=O)=O)cc12)c1ccccc1` (stereo not shown) [Compound 57, N-[5-(1,1-dioxo-1λ^6-isothiazolidin-2-yl)-1H-indazol-3-yl]-2-phenylbutanamide] cannot be ordered by IC50: under 100000 nM for the first, under 100000 nM for the second.

`O=C(Cc1ccc(-c2ccccc2)cc1)Nc1n[nH]c2ccc(N3CCCS3(=O)=O)cc12` [Compound 10, 2-[1,1′-biphenyl]-4-yl-N-[5-(1,1-dioxo-1λ^6-isothiazolidin-2-yl)-1H-indazol-3-yl]acetamide] and `O=C(Cc1ccc(Oc2ccccc2)cc1)Nc1n[nH]c2ccc(N3CCCS3(=O)=O)cc12` [Compound 54, N-[5-(1,1-dioxo-1λ^6-isothiazolidin-2-yl)-1H-indazol-3-yl]-2-(4-phenoxyphenyl)acetamide] cannot be ordered by IC50: under 50 nM for the first, under 100 nM for the second.

`O=C(Cc1csc(NCc2ccc(OCc3ccccc3)cc2)n1)Nc1n[nH]c2ccc(N3CCCS3(=O)=O)cc12` [Compound 77, 2-(2-[4-(benzyloxy)benzyl]amino-1,3-thiazol-4-yl)-N-[5-(1,1-dioxo-1λ^6-isothiazolidin-2-yl)-1H-indazol-3-yl]acetamide] and `NCCOc1ccc(CC(=O)Nc2n[nH]c3ccc(N4CCCS4(=O)=O)cc23)cc1` [Compound 82, 2-[4-(2-aminoethoxy)phenyl]-N-[5-(1,1-dioxo-1λ^6-isothiazolidin-2-yl)-1H-indazol-3-yl]acetamide] cannot be ordered by IC50: under 10000 nM for the first, under 1000 nM for the second.

First: CC(=O)Nc1n[nH]c2ccc(N3CCCS3(=O)=O)cc12 [Compound 19, N-[5-(1,1-dioxo-1λ^6-isothiazolidin-2-yl)-1H-indazol-3-yl]acetamide]
Second: CN1CCN(CC(=O)Nc2n[nH]c3ccc(N4CCCS4(=O)=O)cc23)CC1 [Compound 30, N-[5-(1,1-dioxo-1λ^6-isothiazolidin-2-yl)-1H-indazol-3-yl]-2-(4-methyl-1-piperazinyl)acetamide]
The IC50 of the first is higher: over 100000 nM for the first, under 10000 nM for the second. The second is the more potent here.

`CS(=O)(=O)c1ccc(CC(=O)Nc2n[nH]c3ccc(N4CCCS4(=O)=O)cc23)cc1` [Compound 29, N-[5-(1,1-dioxo-1λ^6-isothiazolidin-2-yl)-1H-indazol-3-yl]-2-[4-(methylsulfonyl)phenyl]acetamide] showed an IC50 of under 50 nM.
